# Assay results published in PMC10321640, “The VIPR2-selective antagonist KS-133 changes macrophage polarization and exerts potent anti-tumor effects as a single agent and in combination with an anti-PD-1 antibody” (PLOS ONE, 2023).
# Where a SMILES comes first, the peptide text is derived from it. Bridges are numbered along the chain shown (N, C = ends).
# Test system: CT26 tumors
# Test: In vivo anti-tumor evaluation, CT26 subcutaneous allografts
# Parameters: species or system BALB/cCrSlc female mice
# Conditions: Fig 2A, KS-133 30 μg/mouse s.c. daily
# Procedure: All experimental procedures that involved animals and their care were conducted in compliance with the Guide for the Care and Use of Laboratory Animals and ARRIVE guidelines. These animal experiments were approved by the Animal Care and Use Committee of Kagawa University (approval No. 21650) and conducted at Kagawa University in accordance with the guidelines. To establish subcutaneous allograft tumors, CT26 cells (1 × 10^5) were subcutaneously injected into the left groin region of BALB/cCrSlc female mice (6 weeks old; Japan SLC, Inc., Shizuoka, Japan) under isoflurane anesthesia. […] The tumor growth rate was recorded on days 1, 7, 14, and 21 by measuring the major and minor axes with a digital caliper. […]
# Fig 2 Anti-tumor effects of KS-133 and KS-133 NPs with or without anti-PD-1 antibody in mice bearing CT26 subcutaneous allografts. […] (A) Anti-tumor efficacy of KS-133 (n = 9–10 mice per group, expressed as the mean ± SEM, *p < 0.01 and **p < 0.001 vs. vehicle control by two-way ANOVA). […] (B) Anti-tumor efficacy of KS-133 NPs (n = 11 mice per group, expressed as the mean ± SEM, *p < 0.05 and **p < 0.001 vs. vehicle control by two-way ANOVA). […] (C) Anti-tumor efficacy of KS-133 NPs and KS-133(P3S) NPs with an anti-PD-1 antibody (n = 6–8 mice per group, expressed as the mean ± SEM, *p < 0.01 and **p < 0.001 vs. Vehicle control by two-way ANOVA). […]
smiles,measurement,setting,value
CC[C@H](C)[C@H](NC(=O)[C@H](CC(C)C)NC(=O)[C@@H]1CC(=O)NCCCC[C@@H]2NC(=O)[C@@H]3CCCN3C(=O)[C@H](CC(C)C)NC(=O)[C@H](Cc3ccc(O)cc3)NC(=O)[C@@H]3CCCN3C(=O)[C@@H]3CCCN3C(=O)[C@@H](NC(C)=O)CSSC[C@H](NC(=O)[C@H](CC(C)C)NC(=O)[C@H](Cc3ccc(O)cc3)NC2=O)C(=O)N1)C(N)=O [KS-133] (Ac-CPPYLPKYLCDLI-NH2; disulfide 1-10; lactam 7-11),effect on CT26 tumor growth (in words),"alone or with anti-PD-1 antibody 200 μg/mouse i.p. three times in a week, combination p < 0.001 vs vehicle",tended to suppress CT26 tumor growth
same,"tumor volume, control group set as 100%","anti-PD-1 antibody 200 μg/mouse i.p. three times in a week, 3 weeks, n = 9–10 mice per group",66%
